Measured values published in publication PMC6450673, “Targeted degradation of aberrant tau in frontotemporal dementia patient-derived neuronal cell models” (eLife, 2019).
“And” between values parts separate entries of the source, which are not always exact repeats. Equal entries are not always repeated.

Legend:
[1] = tested on: total tau (TAU5) in tau-P301L patient iPSC-derived neurons; assay: Human total tau ELISA in P301L neurons; assay type: cell-based; settings: for TAU5 (total tau by ELISA, relative to vehicle-treated): 24 h, replicate values
From the text: (§1) Cells from individuals carrying the tau risk variant A152T (c.1407G > A; NCBI RefSeq NM_001123066, rs143624519), the autosomal dominant mutation P301L (c.C1907T; NCBI NM_001123066, rs63751273), or age-matched non-mutant WT tau were employed in this study (Figure 2—source data 1). Dermal fibroblasts from the tau-P301L carrier and the healthy individual were generated from a skin biopsy from subjects within the MGH Frontotemporal Disorders Unit as part of the MGH Neurodegeneration Repository. Approval for human subjects’ work was obtained under a Partners/MGH-approved IRB Protocol (#2010P001611/MGH). Fibroblasts were reprogrammed into iPSCs, which were subsequently converted into cortical-enriched neural progenitor cells (NPCs) and differentiated into neuronal cells as previously described ([Almeida et al., 2012]; [Seo et al., 2017]; [Silva et al., 2016]; [Sheridan et al., 2011]) (Silva MC, Manuscript in preparation, 2019). Briefly, cells were cultured in 6-well (Fisher Scientific Corning, Pittsburgh, PA) or 96-well (Fisher Scientific Corning) plates coated with poly-ornithine (20 μg/mL in water, Sigma, St. Louis, MO) and laminin (5 μg/mL in PBS, Sigma) (POL-coated), in DMEM/F12-B27 media [70% DMEM (Gibco, Carlsbad, CA), 30% Ham’s-F12 (Fisher Scientific Corning), 2% B27 (Gibco), 1% penicillin-streptomycin (Gibco)]. Media was supplemented with EGF (20 ng/mL, Sigma), FGF (20 ng/mL, Stemgent, Cambridge, MA) and heparin (5 μg/mL, Sigma), to promote NPC proliferation and expansion. The growth factors were withdrawn to promote neural differentiation for 6 to 8 weeks, with half media change two times per week. Cell lines’ identity was authenticated by SANGER sequencing, karyotyping and ACGH analysis at different stages of culture maintenance from iPSC to NPC. All working cell lines tested negative for mycoplasma contamination.
(§2) Compound treatment in six-well plates was performed in 2 mL media volume by removing 1 mL of conditioned media from the culture and adding 1 mL of new media pre-mixed with the compound at the appropriate 2X concentration, followed by incubation at 37°C for the designated period of time. Compound treatment in 96-well plates was performed in 100 μL media volume by adding compound directly to each well, followed by incubation at 37°C. When testing the effect of drug pre-treatment, the first compound was added as described above for the period of time needed, and then QC-01–175 was added directly onto the media without media exchange.
(§3) Neuronal cells differentiated in six-well plate format for 6 weeks, were collected as described for western blotting, and lysed in ELISA-compatible buffer (Invitrogen FNN0011), supplemented with 1 mM PMSF, protease (Roche) and phosphatase (Sigma) inhibitors cocktails, for 30 min on ice with quick vortexing. Lysates were clarified by centrifugation at 13,000 rpm at 4°C for 10 min. The clear lysates were then transferred to new microfuge tubes and total protein concentration was quantified with the Pierce BCA Protein Assay Kit (ThermoFisher Scientific). ELISA assays were performed according to manufacturer instructions: Human Total Tau ELISA (Invitrogen Kit KHB0041/KHB0042) and P-Tau[pS396] Human ELISA Kit (Invitrogen Kit KHB7031). Data was plotted using GraphPad Prism version 8.0.

[2] = target: T1, total tau (TAU5) in non-mutant control iPSC-derived neurons (Homo sapiens, UniProt P10636); assay: Human total tau ELISA in control neurons 1-3; assay type: cell-based; settings: for degradation of tau: all three control neurons, ELISA, concentrations up to 1 μM; for TAU5 (total tau by ELISA, relative to vehicle-treated): replicate values
T1 construct: modeling pathogenic tau species without the need for overexpression of heterologous genes; endogenous in cells; host or cells: 8330-8-RC1, MGH2069-RC1, CTR2-L17-RC2 human iPSC-derived neurons
From the text: as §1, §2, §3

A152T neurons = assay: Neuronal stress and viability assay, rescue of Aβ(1-42) toxicity (Alamar Blue); assay type: cell-based, human; settings: for neuronal viability, compound alone: A152T neurons, 24 hr treatment, 5 μM

T1 sequence (P10636 1-441 isoform P10636-8, stated change not applied): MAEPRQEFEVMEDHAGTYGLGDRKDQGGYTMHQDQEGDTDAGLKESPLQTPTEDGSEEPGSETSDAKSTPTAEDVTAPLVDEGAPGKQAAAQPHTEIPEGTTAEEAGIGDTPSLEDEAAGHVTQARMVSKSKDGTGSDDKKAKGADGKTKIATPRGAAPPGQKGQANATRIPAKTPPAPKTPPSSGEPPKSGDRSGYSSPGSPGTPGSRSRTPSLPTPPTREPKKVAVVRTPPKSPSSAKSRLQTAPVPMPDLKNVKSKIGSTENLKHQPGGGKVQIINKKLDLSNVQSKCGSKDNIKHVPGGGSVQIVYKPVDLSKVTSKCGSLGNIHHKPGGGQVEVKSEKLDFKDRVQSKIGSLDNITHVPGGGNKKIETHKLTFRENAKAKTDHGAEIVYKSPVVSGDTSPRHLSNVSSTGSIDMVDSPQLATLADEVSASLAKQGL

Q: For `O=C(CCc1ccc2c(c1)[nH]c1ccncc12)NCCOCCOCCNc1cccc2c1C(=O)N(C1CCCNC1=O)C2=O` (stereo not shown) [QC-03–075], which “TAU5 (total tau by ELISA, relative to vehicle-treated)” value ([1]; P301L neurons, 0.001 μM compound) is on record?
A: Its value is 1.36 and 1.29 and 0.81 and 0.64 and 0.98 and 0.94.

Q: And the “TAU5 (total tau by ELISA, relative to vehicle-treated)” value ([1]; P301L neurons, 0.01 μM compound)?
A: Its value is 1.08 and 1.03 and 0.64 and 0.51 and 0.78 and 0.75.

Q: What about the “TAU5 (total tau by ELISA, relative to vehicle-treated)” value ([1]; P301L neurons, 0.05 μM compound) of the same compound?
A: Its value is 1.04 and 0.99 and 0.62 and 0.49 and 0.75 and 0.72.

Q: What about the “TAU5 (total tau by ELISA, relative to vehicle-treated)” value ([1]; P301L neurons, 0.1 μM compound) of the same compound?
A: The value was 0.98 and 0.93 and 0.58 and 0.46 and 0.71 and 0.68.

Q: What about the “TAU5 (total tau by ELISA, relative to vehicle-treated)” value ([1]; P301L neurons, 0.5 μM compound) of the same compound?
A: Its value is 1.24 and 1.35 (2×) and 1.15 and 0.91 and 0.94.

Q: And the “TAU5 (total tau by ELISA, relative to vehicle-treated)” value ([1]; P301L neurons, 1 μM compound)?
A: The value was 1.01 and 1.13 and 1.02 and 0.81 and 1.24 and 1.19.

Q: What about the “TAU5 (total tau by ELISA, relative to vehicle-treated)” value ([1]; P301L neurons, 10 μM compound) of the same compound?
A: The value was 1.05 and 1.00 and 0.62 and 0.49 and 0.76 and 0.73.

Q: And the “effect on tau levels” value ([1]; P301L neurons, ELISA, 24 hr)?
A: Its value is “minimal effect”.

Q: And the degradation of tau ([2]; 24 hr)?
A: The degradation of tau was “No significant degradation”.

Q: What about the “viability after Aβ(1-42) stressor, relative to vehicle-alone control” value (A152T neurons; A152T neurons 8 weeks, 5 μM pre-treatment 8 hr, then 10 μM Aβ(1-42) for 16 hr) of the same compound?
A: Its value is “little effect on the toxicity of Aβ(1-42)”.

Q: And the “neuronal viability, compound alone” value (A152T neurons)?
A: Its value is “no change in neuronal viability”.

Q: `O=C(CCc1ccc2c(c1)[nH]c1ccncc12)NCCOCCOCCNc1cccc2c1C(=O)N(C1CCC(=O)NC1=O)C2=O` (stereo not shown) [QC-01–175] was tested. Which “clearance of tau, on average” value ([1]; P301L heterozygous neurons) did it give?
A: The value was over 60%.

Q: What about the “Dmax, 4h, total tau” value ([1]; P301L neurons, ELISA, 4 hr, at 100 nM) of the same compound?
A: Its value is 80%.

Q: And the “Dmax, 24h, total tau” value ([1]; P301L neurons, ELISA, 24 hr, achieved at 1 μM)?
A: Its value is 60%.

Q: And the “TAU5 (total tau by ELISA, relative to vehicle-treated)” value ([2]; Control 1, 8330-8-RC1, 24h, 0.001 μM)?
A: Its value is 1.03 and 0.98 and 1.20 and 1.01.

Q: What about the “TAU5 (total tau by ELISA, relative to vehicle-treated)” value ([2]; Control 1, 8330-8-RC1, 24h, 0.01 μM) of the same compound?
A: Its value is 0.91 and 0.87 and 0.97 and 1.00.

Q: What about the “TAU5 (total tau by ELISA, relative to vehicle-treated)” value ([2]; Control 1, 8330-8-RC1, 24h, 0.1 μM) of the same compound?
A: Its value is 0.93 and 1.07 and 0.97 and 0.84.

Q: And the “TAU5 (total tau by ELISA, relative to vehicle-treated)” value ([2]; Control 1, 8330-8-RC1, 24h, 1 μM)?
A: Its value is 0.99 and 0.94 and 0.95 and 0.71.

Q: What about the “TAU5 (total tau by ELISA, relative to vehicle-treated)” value ([2]; Control 1, 8330-8-RC1, 24h, 10 μM) of the same compound?
A: The value was 0.74 and 1.00 and 0.91 and 0.86.

Q: And the “TAU5 (total tau by ELISA, relative to vehicle-treated)” value ([2]; Control 2, MGH2069-RC1, 24h, 0.001 μM)?
A: The value was 0.91 and 0.93 and 1.00 and 1.15.

Q: What about the “TAU5 (total tau by ELISA, relative to vehicle-treated)” value ([2]; Control 2, MGH2069-RC1, 24h, 0.01 μM) of the same compound?
A: Its value is 0.82 and 0.85 and 0.89 and 0.99.

Q: And the “TAU5 (total tau by ELISA, relative to vehicle-treated)” value ([2]; Control 2, MGH2069-RC1, 24h, 0.1 μM)?
A: The value was 0.76 and 0.78 and 0.92 and 0.71.

Q: What about the “TAU5 (total tau by ELISA, relative to vehicle-treated)” value ([2]; Control 2, MGH2069-RC1, 24h, 1 μM) of the same compound?
A: The value was 0.87 and 0.89 and 0.98 and 0.78.

Q: And the “TAU5 (total tau by ELISA, relative to vehicle-treated)” value ([2]; Control 2, MGH2069-RC1, 24h, 10 μM)?
A: The value was 0.71 and 0.83 and 0.74 and 0.76.

Q: What about the “TAU5 (total tau by ELISA, relative to vehicle-treated)” value ([2]; Control 3, CTR2-L17-RC2, 24h, 0.001 μM) of the same compound?
A: The value was 1.10 and 1.07 and 0.99 and 1.31.

Q: And the “TAU5 (total tau by ELISA, relative to vehicle-treated)” value ([2]; Control 3, CTR2-L17-RC2, 24h, 0.01 μM)?
A: Its value is 0.96 and 1.12 and 1.00 and 0.90.

Q: And the “TAU5 (total tau by ELISA, relative to vehicle-treated)” value ([2]; Control 3, CTR2-L17-RC2, 24h, 0.1 μM)?
A: The value was 1.08 and 0.96 and 0.93 and 1.00.

Q: What about the “TAU5 (total tau by ELISA, relative to vehicle-treated)” value ([2]; Control 3, CTR2-L17-RC2, 24h, 1 μM) of the same compound?
A: Its value is 0.91 and 0.81 and 0.71 and 0.95.

Q: And the “TAU5 (total tau by ELISA, relative to vehicle-treated)” value ([2]; Control 3, CTR2-L17-RC2, 24h, 10 μM)?
A: Its value is 0.93 and 0.83 and 1.17 and 0.95.

Q: What about the degradation of tau ([2]; 24 hr) of the same compound?
A: The degradation of tau was “No significant degradation”.

Q: And the “degradation of total tau” value ([2]; control line 1, 10 μM, 24 hr)?
A: The value was ~ 20%.

Q: And the “degradation of total tau” value ([2]; control line 2, 10 μM, 24 hr)?
A: The value was ~ 20%.

Q: What about the “degradation of total tau” value ([2]; control line 3, 10 μM, 24 hr) of the same compound?
A: Its value is “no effect”.

Q: What about the “dose dependence of effect on tau, ELISA” value ([2]; control neurons (8330–8-RC1, MGH2069-RC1, CTR2-L17-RC2), 24 hr) of the same compound?
A: The value was “did not show a dose-dependent effect”.

Q: And the “% Viability (Relative to Vehicle)” value (A152T neurons; 5μM compound alone, replicates I-VI, 5 µM)?
A: Its value is 78.5% and 107.2% and 115.8% and 105.0% and 96.7% and 93.6%.

Q: What about the “neuronal viability, compound alone” value (A152T neurons) of the same compound?
A: Its value is “no change in neuronal viability”.

Q: And the viability at 5 µM (A152T neurons; Homo sapiens, Neuron, read-out: viability after Aβ(1-42) stressor, relative to vehicle-alone control, A152T neurons 8 weeks, 5 μM pre-treatment 8 hr, then 10 μM Aβ(1-42) for 16 hr)?
A: Its viability at 5 µM is 90%.
